Read-outs that look alike come from different tables or passages of the source.
Experiments:
[1] = test system: Toledo cell; experiment: Anti-proliferation assay (MTS), Toledo cells; format: cell-based, human; details: for IC50 / Estimated IC25: single drug treatment, 96 hours post-treatment; for IC50: read-out: Estimated IC50
Protocol: (§1) Three human Lymphoma cell lines Toledo, MC116 and HT were purchased from the Bioresource Collection and Research Center (BCRC, Taiwan). All cells were incubated in a humidified atmosphere containing 5% C02 at 37° C.
(§2) CAL-101, also known as Idelalisib, is a PI3K-delta inhibitor with potential immunomodulating and antineoplastic activities. Anticancer activity of the combination of Compound A and CAL-101 on three human Lymphoma cell lines (Toledo, MC116, HT) was assessed using in vitro cell proliferation assay. Cell proliferation of drug-treated human cancer cells was determined at 96 hours post-treatment using the MTS (Promega) colorimetric assay.
(§3) Corrected absorbance values were obtained by subtracting the average 490 nm absorbance of the control wells (medium only, no cell) from all other absorbance values. Percentage inhibition of cell growth for compound treatment was calculated using this formula: […]
(§4) The sigmoidal dose-response curve is generated by fitting the percentage inhibition value as a function of logarithm of compound concentrations using GraphPad Prism software. IC50 values are defined as the concentration needed for a 50% inhibition of cell growth. […] All data represent the results of triplicate experiments.
(§5) Estimated IC50 and IC25 values were calculated based on non-linear regression of the dose-response curves of the cell proliferation ratio (%) as a function of logarithm of drug concentrations in single treatments.

[2] = test system: MC116 cell; experiment: Anti-proliferation assay (MTS), MC116 cells; format: cell-based, human
Protocol: as §1, §2, §3, §4, §5

[3] = test system: HT cell; experiment: Anti-proliferation assay (MTS), HT cells; format: cell-based, human
Protocol: as §1, §2, §3, §4, §5

[4] = test system: BRCA1 negative (UWB1.289-2945) human ovarian cancer cell line; experiment: CellTiter-Glo cell viability assay, BRCA1 negative ovarian cancer cells; format: cell-based; details: for Cell toxicity of cytokine by itself: 0-5 ng/mL, BRCA1 negative ovarian cancer cell line; for Effect on cell toxicity in the presence of Compound A: cytokine 0-5 ng/mL together with Compound A
Protocol: (§6) BRCA1 negative (UWB1.289-2945) and BRCA1 positive (UWB1.289) human ovarian cancer cell lines were purchased from the American Type Culture Collection (ATCC). Those cell were incubated in a humidified atmosphere containing 5% C02 at 37° C.
(§7) The anticancer activity of Compound A on BRCA1 negative and BRCA1 positive human ovarian cancer cell lines were also assessed using in vitro cell proliferation assay. Cell proliferation of drug-treated human cancer cell was determined at 72 hours post-treatment using the CellTiter-Glo® Luminescent cell viability assay (Promega). IC50 values are defined as the concentration needed for a 50% inhibition of cell growth and were calculated in GraphPad. The anti-proliferative effects of Compound A alone and in combination with cytokines on these two cell lines are shown in FIGS. 4-6.
(§8) Percentage inhibition of cell growth for compound treatment was calculated using this formula: […]
(§9) The data were processed using built-in excel-macro. Cell viability/proliferation was expressed as […] with respect to the average signal from the untreated control wells of the respective plate. Out-liar values (of the triplicate) were rejected during QC. The processed data were plotted using Graphpad software. Statistical analysis was done using Excel (Microsoft) and Pair-wise comparison of two groups was made using the student's t test. All data represent the results of triplicate experiments.
(§10) Here, two types of cytokines, TNF-α and IFN-γ, were used (0, 0.008, 0.04, 0.2, 1, 5 ng/mL) in response to together with Compound A.

[5] = test system: BRCA1 positive (UWB1.289) human ovarian cancer cell line; experiment: CellTiter-Glo cell viability assay, BRCA1 positive ovarian cancer cells; format: cell-based; details: for Cell toxicity of cytokine by itself: 0-5 ng/mL, BRCA1 positive ovarian cancer cell line
Protocol: as §6, §7, §8, §9, §10

[6] = test system: HBCx-39 (BRCA2 wild type) cancer cell line; experiment: Chemokine expression in BRCA2 wild type cancer cells; format: cell-based
Text: (§11) FIG. 8A-8C show effects of Compound A treatment on chemokine expressions in BRCA2 wild type (WT) and mutant (Mut) PDX-derived breast cancer cells.
(§12) Compound A was applied to both HBCx-39 (BRCA2 wild type) and HBCx-17 (BRCA2 mutant) cancer cell lines in vitro. HBCx-17 is a homologous recombination deficiency tumor cell line having BRCA2 mutation. […] CCL21 and CXCL9 mRNA expression in cancer cells having BRCA2 mutant compared to wild type cancer cells.

[7] = test system: HBCx-17 (BRCA2 mutant) cancer cell line; experiment: Chemokine expression in BRCA2 mutant cancer cells; format: cell-based
Text: as §11, §12

[8] = Homo sapiens, single drug treatment, 96 hours post-treatment, read-out: Estimated IC50
[9] = Homo sapiens, single treatment, read-out: IC50
[10] = single drug treatment, 96 hours post-treatment

| Compound | IC50 ([1]; Homo sapiens) | Estimated IC25 [1] | IC50 [2, 8] | Estimated IC25 [2, 10] | IC50 [3, 8] | Estimated IC25 [3, 10] | Cell toxicity of cytokine by itself [4] | Effect on cell toxicity in the presence of Compound A ([4]; BRCA1 negative cells) | Cell toxicity of cytokine by itself [5] | also measured |
| --- | --- | --- | --- | --- | --- | --- | --- | --- | --- | --- |
| CC[C@H](Nc1ncnc2[nH]cnc12)c1nc2cccc(F)c2c(=O)n1-c1ccccc1 [CAL-101] | 76 nM | 25.3 ± 14.9 nM | 118000 ± 29600 nM | 39286.7 ± 9871.2 nM | 10100 ± 1380 nM | 3357.3 ± 461.0 nM |  |  |  | inhibition at 0.4 µM ([1]; Homo sapiens, IC50 conc. used: Compound A 50 nM, CAL-101 400 nM): 49.6 ± 1.7%; inhibition at 17.5 µM ([2]; Homo sapiens, IC25 conc. used: Compound A 150 nM, CAL-101 17500 nM): 9.2 ± 3.4%; inhibition at 35 µM ([2]; Homo sapiens, IC50 conc. used: Compound A 450 nM, CAL-101 35000 nM): 70.4 ± 3.1%; IC50 [2, 9]: > 10000 nM; inhibition at 2.6667 µM ([3]; Homo sapiens, IC25 conc. used: Compound A 133.3 nM, CAL-101 2666.7 nM): 19.7 ± 4.3%; inhibition at 8 µM ([3]; Homo sapiens, IC50 conc. used: Compound A 400 nM, CAL-101 8000 nM): 37.6 ± 1.5%; IC50 [3, 9]: > 10000 nM |
| Cc1cnc(CNC(=O)c2c(=O)c3ccc(N4CCCN(C)CC4)nc3n3c2sc2ccccc23)cn1 [Compound A, 2-(4-Methyl-[1,4]diazepan-1-yl)-5-oxo-5H-7-thia-1,11b-diaza-benzo[c]fluorene-6-carboxylic acid (5-methyl-pyrazin-2-ylmethyl)-amide] | 45.9 nM | 15.3 ± 0.8 nM | 723 nM | 241.0 ± 6.5 nM | 526 nM | 175.1 ± 6.6 nM |  |  |  | Inhibition (%) ([1]; IC50 conc. used: Compound A 50 nM, CAL-101 400 nM): 25.6 ± 2.5%; Inhibition (%) ([2]; IC25 conc. used: Compound A 150 nM, CAL-101 17500 nM): 44.3 ± 5.5%; Inhibition (%) ([2]; IC50 conc. used: Compound A 450 nM, CAL-101 35000 nM): 83.4 ± 1.2%; Inhibition (%) ([3]; IC25 conc. used: Compound A 133.3 nM, CAL-101 2666.7 nM): 15.2 ± 0.9%; Inhibition (%) ([3]; IC50 conc. used: Compound A 400 nM, CAL-101 8000 nM): 41.2 ± 1.9%; IC50 ([4]; Homo sapiens, BRCA1 negative cells, 72 hours post-treatment): 2.34 to 3.78 nM; Maximum toxicity ([5]; BRCA1 positive UWB1.289, highest concentration (100 nM), 72 hours): ≤ 40%; Production of chemokines in tumor cells [6]: capable of inducing the production of several important chemokines; CCL9, CCL21 and CXCL9 mRNA expression ([7]; BRCA2 mutant compared to wild type cancer cells): increased more; Production of chemokines in tumor cells ([7]; HBCx-17 BRCA2 mutant): capable of inducing the production of several important chemokines |
| IFN-γ: cytokine, Interferon gamma |  |  |  |  |  |  | minimal, but increasing trend of cell toxicity with increasing dose | additive effect | minimal, but increasing trend of cell toxicity with increasing dose |  |
| TNF-α |  |  |  |  |  |  | minimal, but increasing trend of cell toxicity with increasing dose | additive effect | minimal, but increasing trend of cell toxicity with increasing dose |  |

Reference: patent US11229654B2, “Combination therapy of tetracyclic quinolone analogs for treating cancer” (Senhwa Biosciences, Inc., priority 2015, dated 2022)
